Source: patent US11807693B2 (priority 2014, dated 2023)
pEC50: −log10 of the molar value. Read-outs that look alike come from different tables or passages of the source. Starred links: 1 amine or outer side, 2 acyl side, 3 side chain; linkers in the order of their positions; H or OH if unused. Non-standard residues stand in square brackets, D forms with d. Residues, ends and D or L forms follow the SMILES beside them. *: point of attachment. Oic = O=C(O)[C@@H]1C[C@@H]2CCCC[C@@H]2N1; Phe(4-Cl) = N[C@@H](Cc1ccc(Cl)cc1)C(=O)O; γGlu = O=C(O)[C@H](CCC(=O)[*:2])N[*:1]; 2Nal = N[C@@H](Cc1ccc2ccccc2c1)C(=O)O; NMehArg = CN[C@@H](CCCCNC(=N)N)C(=O)O; NMeR = CN[C@@H](CCCNC(=N)N)C(=O)O; Palmitoyl = CCCCCCCCCCCCCCCC(=O)*; Tridecanoyl = CCCCCCCCCCCCC(=O)*; hArg = N=C(N)NCCCC[C@H](N)C(=O)O; αMeF = C[C@](N)(Cc1ccccc1)C(=O)O; dTic = O=C(O)[C@H]1Cc2ccccc2CN1; Cha = N[C@@H](CC1CCCCC1)C(=O)O; αMeP = C[C@@]1(C(=O)O)CCCN1; Pip = O=C(O)[C@@H]1CCCCN1; Nle = CCCC[C@H](N)C(=O)O; Orn = NCCC[C@H](N)C(=O)O; AEEA = NCCOCCOCC(=O)O; Aib = CC(C)(N)C(=O)O

Target: T1, human APJ receptor (Homo sapiens, UniProt P35414)
T1 construct: expressed in transfected cells
T1 sequence (P35414 1-380): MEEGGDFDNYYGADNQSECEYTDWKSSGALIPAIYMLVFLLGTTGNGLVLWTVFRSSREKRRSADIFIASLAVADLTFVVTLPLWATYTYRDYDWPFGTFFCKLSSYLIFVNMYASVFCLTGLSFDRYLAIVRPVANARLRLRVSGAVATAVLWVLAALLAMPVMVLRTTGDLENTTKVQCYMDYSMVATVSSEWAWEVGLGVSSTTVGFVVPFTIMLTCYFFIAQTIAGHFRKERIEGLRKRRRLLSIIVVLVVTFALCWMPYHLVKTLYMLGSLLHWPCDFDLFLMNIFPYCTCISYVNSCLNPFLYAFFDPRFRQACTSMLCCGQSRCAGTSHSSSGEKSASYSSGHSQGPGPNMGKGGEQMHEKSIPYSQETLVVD
Assay: [35S] GTPγS assay, human APJ receptor
Assay type: biochemical
Experimental: The membranes were incubated with modified peptides in the assay buffer. […] Bound [^35S] GTPγS was separated from free radiolabel by filtration. The filter bound radioactivity was determined by liquid scintillation counting.

Compound | pEC50 (human APJ receptor) | further results
CCCCCCCCCCCCC(=O)N[C@@H](CCC(=O)NCCOCCOCC(=O)NCCOCCOCC(=O)N[C@@H](CCC(N)=O)C(=O)N[C@@H](CCCNC(=N)N)C(=O)N1CCC[C@H]1C(=O)N(C)[C@@H](CCCNC(=N)N)C(=O)N[C@@H](CC1CCCCC1)C(=O)N[C@@H](CO)C(=O)N[C@@H](Cc1c[nH]cn1)C(=O)N[C@@H](CCCCN)C(=O)NCC(=O)N1[C@H](C(=O)N[C@@H](CCCC)C(=O)N[C@@H](Cc2ccc(Cl)cc2)C(=O)O)C[C@@H]2CCCC[C@@H]21)C(=O)O [compound 409] ({Tridecanoyl-γGlu-AEEA-AEEA}-QRP[NMeR][Cha]SHKG[Oic][Nle][Phe(4-Cl)]-OH) |  | pEC50 (Table 16): 9.00
CCCC[C@H](NC(=O)[C@@H]1CCCN1C(=O)CNC(=O)[C@H](CCCCN)NC(=O)[C@H](Cc1c[nH]cn1)NC(=O)[C@H](CO)NC(=O)[C@H](CC(C)C)NC(=O)[C@H](CCCCNC(=N)N)N(C)C(=O)[C@H](CCCNC(=N)N)NC(=O)[C@H](CCC(N)=O)NC(C)=O)C(=O)N1CCC[C@H]1C(=O)N[C@@H](Cc1ccc(Cl)cc1)C(=O)O [compound 73] (Ac-QR[NMehArg]LSHKGP[Nle]P[Phe(4-Cl)]-OH) | 8.74 | 
CCCCCCCCCCCCCCCC(=O)N[C@@H](CCC(=O)NCCOCCOCC(=O)NCCOCCOCC(=O)N[C@H](CCC(N)=O)C(=O)N[C@@H](CCCNC(=N)N)C(=O)N1CCC[C@H]1C(=O)N(C)[C@@H](CCCNC(=N)N)C(=O)N[C@@H](CC1CCCCC1)C(=O)N[C@@H](CO)C(=O)N[C@@H](Cc1c[nH]cn1)C(=O)N[C@@H](CCCCN)C(=O)NCC(=O)N1[C@H](C(=O)N[C@@H](CCCC)C(=O)N2CCCC[C@H]2C(=O)N[C@@](C)(Cc2ccccc2)C(=O)O)C[C@@H]2CCCC[C@@H]21)C(=O)O [compound 609] ({Palmitoyl-γGlu-AEEA-AEEA}-[dQ]RP[NMeR][Cha]SHKG[Oic][Nle][Pip][αMeF]-OH) | 8.90 | 
CCCCCCCCCCCCCCCC(=O)N[C@@H](CCC(=O)NCCOCCOCC(=O)NCCOCCOCC(=O)N[C@H](CCC(N)=O)C(=O)N[C@@H](CCCNC(=N)N)C(=O)N1CCC[C@H]1C(=O)N(C)[C@@H](CCCNC(=N)N)C(=O)N[C@@H](CC1CCCCC1)C(=O)N[C@@H](CO)C(=O)N[C@@H](Cc1c[nH]cn1)C(=O)N[C@@H](CCCCN)C(=O)NCC(=O)N1CCCC[C@H]1C(=O)N[C@@H](CCCC)C(=O)N1CCC[C@H]1C(=O)N1Cc2ccccc2C[C@@H]1C(=O)O)C(=O)O [compound 599] ({Palmitoyl-γGlu-AEEA-AEEA}-[dQ]RP[NMeR][Cha]SHKG[Pip][Nle]P[dTic]-OH) | 9.36 | 
CCCC[C@H](NC(=O)[C@@H]1CCCN1C(=O)CNC(=O)[C@H](CCCCN)NC(=O)[C@H](Cc1c[nH]cn1)NC(=O)[C@H](CO)NC(=O)[C@H](CC1CCCCC1)NC(=O)[C@H](CCCCNC(=N)N)NC(=O)[C@@H]1CCCN1C(=O)[C@H](CCCNC(=N)N)NC(=O)[C@H](CCC(N)=O)NC(=O)[C@H](CCCCNC(=N)N)NC(=O)[C@H](CCCCNC(=N)N)NC(=O)[C@H](Cc1ccccc1)NC(=O)[C@H](CCCN)NC(C)=O)C(=O)N[C@@H](Cc1ccc2ccccc2c1)C(=O)O [compound 49] (Ac-[Orn]F[hArg][hArg]QRP[hArg][Cha]SHKGP[Nle][2Nal]-OH) |  | pEC50: 9.80
CCCC[C@H](NC(=O)[C@@H]1C[C@@H]2CCCC[C@@H]2N1C(=O)CNC(=O)[C@H](CCCCN)NC(=O)[C@H](Cc1c[nH]cn1)NC(=O)[C@H](CO)NC(=O)[C@H](CC1CCCCC1)NC(=O)[C@H](CCCCNC(=N)N)NC(=O)[C@@H]1CCCN1C(=O)[C@H](CCCNC(=N)N)NC(=O)[C@H](CCC(N)=O)NC(=O)[C@H](CCCNC(=N)N)NC(C)=O)C(=O)N1CCC[C@H]1C(=O)N[C@@H](Cc1ccc(Cl)cc1)C(=O)O [compound 17] (Ac-RQRP[hArg][Cha]SHKG[Oic][Nle]P[Phe(4-Cl)]-OH) |  | pEC50: 9.77
CCCC[C@H](NC(=O)[C@]1(C)CCCN1C(=O)CNC(=O)[C@H](CCCCN)NC(=O)[C@H](Cc1c[nH]cn1)NC(=O)[C@H](CO)NC(=O)[C@H](CC1CCCCC1)NC(=O)[C@H](CCCNC(=N)N)N(C)C(=O)[C@@H]1CCCN1C(=O)[C@H](CCCNC(=N)N)NC(=O)[C@@H](CCC(N)=O)NC(C)=O)C(=O)NC(C)(C)C(=O)N[C@@H](Cc1ccc(Cl)cc1)C(=O)O [compound 93] (Ac-[dQ]RP[NMeR][Cha]SHKG[αMeP][Nle][Aib][Phe(4-Cl)]-OH) | 9.64 | 
